According to patent US20230130103A1, “TARGETED PHARMACOLOGICAL THERAPEUTICS IN UVEAL MELANOMA” (Washington University, priority 2017, published 2023):
Starred links: 1 amine or outer side, 2 acyl side, 3 side chain; linkers in the order of their positions; H or OH if unused. Positions of bridges follow the written chain, without caps; N, C: chain ends. Non-standard residues stand in square brackets, D forms with d. Residues, ends and D or L forms follow the SMILES beside them. *: point of attachment. Leu(3R-OH,Nα-propionyl) = CCC(=O)N[C@H](C(=O)*)[C@H](O)C(C)C; X1 = CC(C)[C@@H](O[*:3])[C@H](N[*:1])C(=O)[*:2]; X2 = CC(C)[C@H](O[*:3])[C@@H](N[*:1])C(=O)[*:2]; NMeaThr = CN[C@H](C(=O)O)[C@H](C)O; dPhLac = O=C(O)[C@H](O)Cc1ccccc1; NMeA = CN[C@@H](C)C(=O)O; NMeDha = C=C(NC)C(=O)O

Tested on: Mel202 cells
Experiment: qPCR validation of FR target genes
Assay type: cell-based, Human
Settings: FR-treated Mel202 cells; FIG. 10
Description: More important, 42% of genes in this cluster are known targets of the polycomb repressive complex 2 (PRC2) during differentiation from embryonic stem cells (FIG. 7D and Table 5), as indicated by gene set enrichment analysis.
92.1 UM cells were treated with 100 nM FR or vehicle (DMSO) in RPMI growth medium and collected after 1 and 3 d of treatment. RNA was isolated using the RNeasy Mini Kit (Qiagen) following the manufacturer's protocol and including the optional DNase I treatment step. RNA quality was assessed on a Bioanalyzer 2100 (Agilent Technologies, Santa Clara, Calif., USA). mRNA was extracted from total RNA using a Dynal mRNA Direct kit, fragmented and reverse transcribed to double stranded cDNA with random primers before addition of adapters for library preparation. Library preparation and HiSeq2500 sequencing were performed by the Washington University Genome Technology Access Center (gtac.wustl.edu). FastQ files were aligned to the transcriptome and the whole-genome with STAR. Biologic replicates were simultaneously analyzed by edgeR and Sailfish analyses of gene-level/exon-level features. […] Significant gene sets from GSEA analyses were combined such that genes associated with multiple related signatures were only counted once and each gene was assigned only to a single combined groupbased on the signature with the highest enrichment score for that gene. […]

**Q.** `C=C1C(=O)N[C@@H](C)C(=O)N(C)[C@@H](C)C(=O)N[C@H]([C@@H](OC(=O)[C@@H](NC(=O)CC)[C@H](O)C(C)C)C(C)C)C(=O)N(C)[C@@H]([C@H](C)OC)C(=O)O[C@H](C(C)C)[C@H](NC(C)=O)C(=O)O[C@H](Cc2ccccc2)C(=O)N1C` [FR, [(1S)-1-[(3S,6R,9S,12S,18R,21S,22R)-21-acetamido-18-benzyl-3-[(1S)-1-methoxyethyl]-4,9,10,12,16-pentamethyl-15-methylidene-2,5,8,11,14,17,20-heptaoxo-22-propan-2-yl-1,19-dioxa-4,7,10,13,16-pentazacyclodocos-6-yl]-2-methylpropyl] (2S,3R)-3-hydroxy-4-methyl-2-(propanoylamino)pentanoate] (Ac-[X1][dPhLac][NMeDha]A[NMeA][X2](Leu(3R-OH,Nα-propionyl))[NMeaThr](Me); ester 1-C) was tested. Which “RNA-Seq downregulation results checked by quantitative RT-PCR” value did it give?
**A.** Its value is “confirmed”.
